From patent US20120197004A1, “NOVEL ANTI-MICROBIAL PEPTIDOMIMETIC COMPOUNDS AND METHODS TO CALCULATE ANTI-MICROBIAL ACTIVITY” (priority 2006, published 2012)
Where a SMILES comes first, the peptide text is derived from it. [ ]: non-standard residue; d: D form. Oic = O=C(O)[C@@H]1C[C@@H]2CCCC[C@@H]2N1; Tic = O=C(O)[C@@H]1Cc2ccccc2CN1

Columns and labels:
[1] = tested on: Mycobacterium ranae (ATCC 110); details: ATCC 110
[2] = tested on: Staphylococcus aureus Methicillin/Gentamicin/Tetracycline Resistant (ATCC 33592); details: in vitro MIC; tested at 100, 30, 10, 3, 1, 0.3 and 0.1 μM in 1% DMSO

CC(=O)NCC(=O)N[C@@H](Cc1ccccc1)C(=O)N1Cc2ccccc2C[C@H]1C(=O)N1[C@H](C(=O)NCC(=O)N[C@H](CCCCN)C(=O)N2Cc3ccccc3C[C@H]2C(=O)N2[C@H](C(=O)NCC(=O)N[C@@H](Cc3ccccc3)C(=O)N3Cc4ccccc4C[C@H]3C(=O)N3[C@H](C(=O)NCC(=O)N[C@H](CCCCN)C(=O)N4Cc5ccccc5C[C@H]4C(=O)N[C@@H](CCCCN)C(=O)N[C@@H](CCCCN)C(=O)N[C@@H](CCCCN)C(=O)N[C@@H](CCCCN)C(N)=O)C[C@@H]4CCCC[C@@H]43)C[C@@H]3CCCC[C@@H]32)C[C@@H]2CCCC[C@@H]21 [FKAB-1G3, Ac-GF-Tic-Oic-G-dK-Tic-Oic-GF-Tic-Oic-G-dK-Tic-KKKK-CONH2] (Ac-GF[Tic][Oic]G[dK][Tic][Oic]GF[Tic][Oic]G[dK][Tic]KKKK-NH2)
Minimum Inhibitory Concentration Mycobacterium ranae [1]: 10 µM

CC[C@H](C)[C@H](NC(=O)CN)C(=O)NCC(=O)N[C@@H](CCCCN)C(=O)N[C@@H](Cc1ccccc1)C(=O)N[C@@H](CC(C)C)C(=O)N[C@@H](Cc1c[nH]cn1)C(=O)N[C@@H](CO)C(=O)N[C@@H](C)C(=O)NCC(=O)N[C@@H](CCCCN)C(=O)N[C@@H](Cc1ccccc1)C(=O)NCC(=O)N[C@@H](CCCCN)C(=O)N[C@@H](C)C(=O)N[C@@H](Cc1ccccc1)C(=O)N[C@H](C(=O)NCC(=O)N[C@@H](CCC(=O)O)C(=O)N[C@H](C(=O)N[C@@H](CCSC)C(=O)N[C@@H](CCCCN)C(=O)N[C@@H](CO)C(=O)O)[C@@H](C)CC)C(C)C [Magainin I, magainin I, reference compound] (H-GIGKFLHSAGKFGKAFVGEIMKS-OH; N-terminus and C-terminus assumed)
Minimum Inhibitory Concentration Staphylococcus aureus ME/GM/TC resistant [2]: > 100 µM

CC(=O)NCC(=O)N[C@@H](Cc1ccccc1)C(=O)N1[C@H](C(=O)N2Cc3ccccc3C[C@H]2C(=O)NCC(=O)N[C@@H](CCCCN)C(=O)N2[C@H](C(=O)N3Cc4ccccc4C[C@H]3C(=O)NCC(=O)N[C@@H](Cc3ccccc3)C(=O)N3[C@H](C(=O)N4Cc5ccccc5C[C@H]4C(=O)NCC(=O)N[C@@H](CCCCN)C(=O)N4Cc5ccccc5C[C@H]4C(=O)N[C@@H](CCCCN)C(=O)N[C@@H](CCCCN)C(=O)N[C@@H](CCCCN)C(=O)N[C@@H](CCCCN)C(N)=O)C[C@@H]4CCCC[C@@H]43)C[C@@H]3CCCC[C@@H]32)C[C@@H]2CCCC[C@@H]21 [FKABB-1G1, Ac-GF-Oic-Tic-GK-Oic-Tic-GF-Oic-Tic-GK-Tic-KKKK-CONH2] (Ac-GF[Oic][Tic]GK[Oic][Tic]GF[Oic][Tic]GK[Tic]KKKK-NH2)
Minimum Inhibitory Concentration Mycobacterium ranae [1]: 30 µM

CC(=O)N[C@@H](CCCCN)C(=O)N[C@@H](CCCCN)C(=O)N[C@@H](CCCCN)C(=O)N[C@@H](CCCCN)C(=O)NCC(=O)N[C@@H](Cc1ccccc1)C(=O)N1Cc2ccccc2C[C@H]1C(=O)N1[C@H](C(=O)NCC(=O)N[C@@H](CCCCN)C(=O)N2Cc3ccccc3C[C@H]2C(=O)N2[C@H](C(=O)NCC(=O)N[C@@H](Cc3ccccc3)C(=O)N3Cc4ccccc4C[C@H]3C(=O)N3[C@H](C(=O)NCC(=O)N[C@@H](CCCCN)C(=O)N4Cc5ccccc5C[C@H]4C(N)=O)C[C@@H]4CCCC[C@@H]43)C[C@@H]3CCCC[C@@H]32)C[C@@H]2CCCC[C@@H]21 [FBAB-1Gq, Ac-KKKK-GF-Tic-Oic-GK-Tic-Oic-GF-Tic-Oic-GK-Tic-CONH2] (Ac-KKKKGF[Tic][Oic]GK[Tic][Oic]GF[Tic][Oic]GK[Tic]-NH2)
Minimum Inhibitory Concentration Mycobacterium ranae [1]: 3 µM

CC(=O)NCC(=O)N[C@@H](Cc1ccccc1)C(=O)N1Cc2ccccc2C[C@H]1C(=O)N1Cc2ccccc2C[C@H]1C(=O)NCC(=O)N[C@@H](CCCCN)C(=O)N1Cc2ccccc2C[C@H]1C(=O)N1Cc2ccccc2C[C@H]1C(=O)NCC(=O)N[C@@H](Cc1ccccc1)C(=O)N1Cc2ccccc2C[C@H]1C(=O)N1Cc2ccccc2C[C@H]1C(=O)NCC(=O)N[C@@H](CCCCN)C(=O)N1Cc2ccccc2C[C@H]1C(=O)N[C@@H](CCCCN)C(=O)N[C@@H](CCCCN)C(=O)N[C@@H](CCCCN)C(=O)N[C@@H](CCCCN)C(N)=O [FKAB-1Gg2, Ac-GF-Tic-Tic-GK-Tic-Tic-GF-Tic-Tic-GK-Tic-KKKK-CONH2] (Ac-GF[Tic][Tic]GK[Tic][Tic]GF[Tic][Tic]GK[Tic]KKKK-NH2)
Minimum Inhibitory Concentration Mycobacterium ranae [1]: 10 µM
